Results as given in article PMC6344228 (Cell Chemical Biology, 2019).
“And” between values parts separate entries of the source, which are not always exact repeats. Identical values can stand only once. Like-named read-outs stand apart in the source and are kept apart here. One block for each compound: values may come before it.

Assays:
monomeric CDK1 = molecular target: T1, monomeric CDK1 (Homo sapiens, UniProt P06493); experiment: Differential scanning fluorimetry (DSF), CDK1; assay type: binding; details: read-out: ΔTm CDK1
T1 construct: Full-length human CDK1 was expressed in insect cells either untagged (from pVL1393) or as a 3C-protease cleavable GST fusion; GST (N, cleaved yes); made in house; host or cells: insect cells (Sf9 baculovirus)
Protocol: (§1) The stability of the CDK1 and CDK2 inhibitor complexes were assessed by differential scanning fluorimetry (DSF) using a ViiA7 Real-Time PCR system (Applied Biosystems). Purified CDK1 (4 μM) and CDK2 (6 uM) in their respective gel filtration buffers were assayed in the presence of 10 μM inhibitor in 8% DMSO, in triplicate, in a 384-well plate. […] The resulting data was plotted and the inflection point (Tm) calculated using the Boltzmann equation in Applied Biosystems software.

CDK1-cyclin B [1] = details: read-out: IC50 Published measurements CDK1B; scintillation proximity assay; ref Whittaker et al., 2017; Byth et al., 2009; cited from earlier work
monomeric CDK2 = molecular target: T2, monomeric CDK2 (Homo sapiens, UniProt P24941); experiment: biochemical; assay type: binding; details: DSF; phosphorylated monomeric CDK2; 10 μM inhibitor
T2 construct: Human CDK2 (encompassing full length residues 1-298); GST (N, cleaved yes); made in house; host or cells: E. coli
Protocol: as §1

CDK1-cyclin B [2] = details: radiolabelled γ33P-ATP kinase assay, read-out: IC50 Published measurements CDK1B, cited from earlier work
[3] = molecular target: T3, GST-tagged unphosphorylated CDK2 (Homo sapiens, UniProt P24941); experiment: biochemical; assay type: binding; details: unphosphorylated monomeric GST-CDK2; 20°C; duplicate, ± SD; read-out: SPR Kd CDK2
T3 construct: Human CDK2 (encompassing full length residues 1-298); made in house; host or cells: E. coli BL21(DE3)STAR
Protocol: (§2) SPR ligand interactions assays were performed on a Biacore S200 (GE Healthcare Life Sciences) at 20°C using multi-cycle settings. GST-tagged unphosphorylated CDK1 and CDK2 were immobilised onto the surface of a CM5 chip pre-immobilised with anti-GST antibody, provided as part of the GST-capture kit (GE Healthcare Life Sciences, catalogue number BR100223) following the GST immobilisation kit instructions. As a control, recombinant GST was immobilised onto the designated control flow cell. […] Preceding injection of each compound, three cycles of buffer injections were carried out over all surfaces (30 μL/min for 60 s with 360 s dissociation). Compounds were then injected over all surfaces (from low to high concentration) for 60 s at 30 μL/min before being allowed to dissociate for 360 s to record dose-responses. […] The experiment was conducted in SPR running buffer (20 mM HEPES, 150 mM NaCl, 0.01% Tween-20®, 1% DMSO, pH 7.4) and used an 8-point DMSO solvent correction (preparation of DMSO in DMSO-free SPR buffer to final concentrations of: 0.2%, 0.4%, 0.6%, 0.8% 1%, 1.2%, 1.4%, 1.6%) to account for any bulk flow interactions.

[4] = molecular target: T4, GST-tagged unphosphorylated CDK1 (Homo sapiens, UniProt P06493); experiment: biochemical; assay type: binding; details: unphosphorylated monomeric GST-CDK1; 20°C; duplicate, ± SD; read-out: SPR Kd CDK1
T4 construct: Full-length human CDK1 was expressed in insect cells either untagged (from pVL1393) or as a 3C-protease cleavable GST fusion; made in house; host or cells: insect cells (Sf9 baculovirus)
Protocol: as §2

CDK2-cyclin A [5] = molecular target: T5, CDK2-cyclin A (Homo sapiens, UniProt P24941); experiment: biochemical; set-up: Human CDK2 (encompassing full length residues 1-298); GST (N, cleaved yes); made in house; host or cells: E. coli; details: ADP-Glo, 20 μM ATP, 20 μM peptide, 1.5 nM CDK2-cyclin A
Protocol: (§3) Briefly, the 5 inhibitors in the study were titrated against phosphorylated CDK2–cyclin A and CDK1–cyclin B, with reaction initiated through addition of ATP and substrate peptide HHASPRK (Enzo Scientific). ATP to ADP conversion was assessed using the ADP-Glo assay (Promega) essentially as described by the manufacturers. […] Reactions were initiated by the addition of 20 μM ATP and 20 μM peptide. All activity assays were performed in triplicate in white low volume 384-well plates using a PheraStar plate reader (BMG).

[6] = molecular target: T6, phosphorylated monomeric CDK1 (Homo sapiens, UniProt P06493); experiment: biochemical; assay type: binding; details: phosphorylated monomeric (cyclin-free) CDK1; 30°C; n = 2, ± SD; read-out: ITC Kd CDK1
T6 construct: Full-length human CDK1 was expressed in insect cells either untagged (from pVL1393) or as a 3C-protease cleavable GST fusion; GST (N, cleaved yes); made in house; host or cells: insect cells (Sf9 baculovirus)
Protocol: (§4) Individual protein samples were exchanged into ITC buffer (40 mM HEPES, 500 mM NaCl, 0.25 mM TCEP, pH 8.0) at 4°C using a Hitrap desalting column (GE Healthcare Life Sciences, Chicago, IL, USA) (i.e. CDK1 and cyclin B were not combined to form a complex prior to buffer exchange). Protein concentration was then determined at A280 nm using a Nanodrop 2000 (Thermoscientific, Waltham, MA, USA) and sequence derived extinction coefficients (http://web.expasy.org/protparam/). Proteins and compounds were degassed at 30°C directly before analysis. Compounds at 100 μM prepared in ITC buffer (40 mM HEPES, 500 mM NaCl, 0.25 mM TCEP, pH 8.0) and to a final DMSO concentration of 1% were titrated into 200 μL protein solutions prepared at 10 μM, 1% DMSO in the cell. All experiments used phosphorylated forms of CDK1 and CDK2 (on T161 or T160 respectively). For experiments carried out in the absence of cyclin, proteins were prepared on ice to a final concentration of 10 μM in ITC buffer and supplemented with 1% DMSO.

[7] = molecular target: T7, phosphorylated monomeric CDK2 (Homo sapiens, UniProt P24941); experiment: biochemical; assay type: binding; details: phosphorylated monomeric (cyclin-free) CDK2; 30°C; n = 2, ± SD; read-out: ITC Kd CDK2
T7 construct: Human CDK2 (encompassing full length residues 1-298); GST (N, cleaved yes); made in house; host or cells: E. coli
Protocol: as §4

CDK1-cyclin B [8] = molecular target: T8, CDK1-cyclin B (Homo sapiens, UniProt P06493); experiment: biochemical; assay type: binding; details: phosphorylated CDK1-cyclin B complex; 30°C; n = 2, ± SD; read-out: ITC Kd CDK1B
T8 construct: Full-length human CDK1 was expressed in insect cells either untagged (from pVL1393) or as a 3C-protease cleavable GST fusion; GST (N, cleaved yes); made in house; host or cells: CDK1: insect cells (Sf9 baculovirus); cyclin B1: E. coli
Protocol: as §4

CDK1-cyclin B [9] = molecular target: T8, CDK1-cyclin B; experiment: biochemical; details: ADP-Glo, 20 μM ATP, 20 μM peptide, 4 nM CDK1-cyclin B
Protocol: as §3

CDK2-cyclin A [10] = molecular target: T5, CDK2-cyclin A; experiment: biochemical; assay type: binding; set-up: Human CDK2 (encompassing full length residues 1-298); GST (N, cleaved yes); made in house; host or cells: E. coli (CDK2 and cyclin A2); details: phosphorylated CDK2-cyclin A complex; 30°C; n = 2, ± SD; read-out: ITC Kd CDK2A
Protocol: as §4

CDK2-cyclin A [11] = details: radiolabelled γ33P-ATP kinase assay; ref Lane et al., 2001; read-out: IC50 Published measurements CDK2A; cited from earlier work
[12] = DSF, phosphorylated monomeric CDK1, 10 μM inhibitor

T1 sequence (P06493 whole entry, the tested form may be a part): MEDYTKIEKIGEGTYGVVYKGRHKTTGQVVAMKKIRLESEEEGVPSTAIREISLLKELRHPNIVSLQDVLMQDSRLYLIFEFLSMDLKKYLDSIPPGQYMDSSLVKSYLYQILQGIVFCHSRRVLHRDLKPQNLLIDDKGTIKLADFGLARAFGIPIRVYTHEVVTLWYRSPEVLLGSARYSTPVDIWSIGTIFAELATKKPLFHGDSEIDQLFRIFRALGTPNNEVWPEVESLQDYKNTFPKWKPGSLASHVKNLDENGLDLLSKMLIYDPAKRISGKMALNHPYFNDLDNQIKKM
T8 sequence (P06493 whole entry, the tested form may be a part): as above
T8 sequence (P14635 with tags, fused parts or gaps C167S/C238S/C350S partner limits assumed): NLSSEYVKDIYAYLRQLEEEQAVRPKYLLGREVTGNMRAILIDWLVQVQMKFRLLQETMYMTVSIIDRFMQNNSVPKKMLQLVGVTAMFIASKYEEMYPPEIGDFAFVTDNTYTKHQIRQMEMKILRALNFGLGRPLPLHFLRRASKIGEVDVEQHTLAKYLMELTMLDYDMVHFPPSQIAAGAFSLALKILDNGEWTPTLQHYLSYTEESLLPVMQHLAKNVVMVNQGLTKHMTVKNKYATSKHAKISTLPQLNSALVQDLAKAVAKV
T6 sequence (P06493 whole entry, the tested form may be a part): as the sequence (P06493 whole entry, the tested form may be a part) above
T4 sequence (P06493 whole entry, the tested form may be a part): as above

Compound: Cc1ncc(-c2ccnc(Nc3ccc(S(C)(=O)=O)cc3)n2)n1C(C)C [AZD5438]
ΔTm at 10 µM (monomeric CDK1; [12]): -2.6 °C | IC50 (CDK1-cyclin B [1]): 16 nM

ΔTm at 10 µM (monomeric CDK1; [12]): 0.9 °C | ΔTm at 10 µM (monomeric CDK2): 7.3 °C
Compound: CN1CC[C@H](c2c(O)cc(O)c3c(=O)cc(-c4ccccc4Cl)oc23)[C@H](O)C1 [Alvocidib]

Compound: CCn1cnc2c(Nc3cccc(Cl)c3)nc(NC3CCCCC3N)nc21 (stereo not shown) [CGP74514A]
ΔTm at 10 µM (monomeric CDK1): -3.3 °C | Kd [3]: 312 ± 52 nM | Kd [4]: 13.5 µM | IC50 (CDK2-cyclin A [5]; read-out: IC50 Lab measurements CDK2A): 33 nM | Ki (CDK2-cyclin A [5]; read-out: Ki (in parenthesis) Lab measurements CDK2A): 18.3 nM | Kd [6]: > 20 µM | Kd [7]: 715 ± 15 nM | Kd (CDK1-cyclin B [8]): 950 ± 50 nM | ΔTm at 10 µM (monomeric CDK2): 5.2 °C | IC50 (CDK1-cyclin B [9]; read-out: IC50 Lab measurements CDK1B): 833 nM | Ki (CDK1-cyclin B [9]; read-out: Ki (in parenthesis) Lab measurements CDK1B): 463 nM | Kd (CDK2-cyclin A [10]): 224 ± 14 nM | IC50 (CDK1-cyclin B [2]; ref Imbach et al., 1999): 25 nM
